For 50 compounds, IC50 results are on record in US20240190855A1 (Relay Therapeutics, Inc., priority 2021, published 2024).

The target of this assay is T1, CDK2/Cyclin E complex (Homo sapiens, UniProt P24941).
T1 construct: purchased Eurofins 14-475
Put plainly: CDK2/Cyclin E fluorescence-based microfluidic mobility shift assay (CDK2 Biochemical Caliper Assay). The settings on record: read-out: Biochemical CDK2/CyclinE Caliper IC50. In short, it runs like this: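 Microfluidic mobility-shift readout after EDTA termination measured phosphorylation of fluorescent FL Peptide 18 (1.5 uM final) in a 20 hr room-temperature reaction. Compounds were tested at 11 concentrations (3-fold).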
Take `COCc1cc(C(=O)Nc2cc([C@@H]3CC[C@H](Oc4nncc5cnccc45)C3)[nH]n2)n(C)n1` (single isomer, unassigned) [Example 535]: the IC50 was in the range of 250 to 1000 nM.
For the compound `COCc1cc(C(=O)Nc2cc([C@@H]3C[C@H](Oc4cnccc4C4CC4)CO3)[nH]n2)n(C)n1` (single isomer, unassigned) [Example 538], the IC50 was in the range of 1000 to 100000 nM.
Under `COCc1cc(C(=O)Nc2cc([C@H]3C[C@@H](Oc4cnccc4C4CC4)CO3)[nH]n2)n(C)n1` (single isomer, unassigned) [Example 539] stands 250 to 1000 nM; under `COCc1cc(C(=O)Nc2cc([C@H]3CC[C@@H](c4ccc(C)[nH]c4=O)C3)[nH]n2)n(C)n1` (single isomer, unassigned) [Example 542], 250 to 1000 nM; under `COCc1cc(C(=O)Nc2cc([C@@H]3CC[C@H](c4ccc(C)[nH]c4=O)C3)[nH]n2)n(C)n1` (single isomer, unassigned) [Example 543], 1000 to 100000 nM.
As for `Cc1ncccc1O[C@@H]1CC[C@H](c2cc(Nc3ccc4c(c3)C(C)(C)NC4=O)n[nH]2)C1` (single isomer, unassigned) [Example 546], the IC50 is at most 100 nM.
As to `Cc1ncccc1O[C@H]1CC[C@@H](c2cc(Nc3ccc4c(c3)C(C)(C)NC4=O)n[nH]2)C1` (single isomer, unassigned) [Example 547], the IC50 is at most 100 nM.
For the compound `CC(C)NC(=O)O[C@@H]1CC[C@H](c2cc(Nc3ccc4c(c3)C(C)(C)NC4=O)n[nH]2)C1` (single isomer, unassigned) [Example 548], the IC50 is at most 100 nM.
Under `CC(C)NC(=O)O[C@H]1CO[C@@H](c2cc(Nc3ccc4c(c3)C(C)(C)NC4=O)n[nH]2)C1` (single isomer, unassigned) [Example 549] stands at most 100 nM; under `COCc1cc(C(=O)Nc2cc([C@H]3CC[C@@H](Oc4nnccc4C4CCC4)C3)[nH]n2)n(C)n1` (single isomer, unassigned) [Example 550], at most 100 nM.
Turning to `COCc1cc(C(=O)Nc2cc([C@@H]3CC[C@H](Oc4nnccc4C4CCC4)C3)[nH]n2)n(C)n1` (single isomer, unassigned) [Example 551], the IC50 was at most 100 nM.
Take `COCc1cc(C(=O)Nc2cc([C@H]3CC[C@@H](c4ccc(C(C)C)cn4)C3)[nH]n2)n(C)n1` (single isomer, unassigned) [Example 552]: the IC50 was 1000 to 100000 nM.
Take `COCc1cc(C(=O)Nc2cc([C@@H]3CC[C@H](c4ccc(C(C)C)cn4)C3)[nH]n2)n(C)n1` (single isomer, unassigned) [Example 553]: the IC50 lay within 1000 to 100000 nM.
Turning to `COCc1cc(C(=O)Nc2cc([C@H]3CC[C@@H](Cc4ncc(C)s4)C3)[nH]n2)n(C)n1` (single isomer, unassigned) [Example 554], the IC50 fell in the range of 1000 to 100000 nM.
Regarding `COCc1cc(C(=O)Nc2cc([C@@H]3CC[C@H](Cc4ncc(C)s4)C3)[nH]n2)n(C)n1` (single isomer, unassigned) [Example 555], the IC50 lay in the range of 250 to 1000 nM.
In the case of `COCc1cc(C(=O)Nc2cc([C@@H]3CC[C@@H](Cc4ncc(C)s4)C3)[nH]n2)n(C)n1` (single isomer, unassigned) [Example 556], the IC50 was 1000 to 100000 nM.
With `COCc1cc(C(=O)Nc2cc([C@H]3CC[C@H](Cc4ncc(C)s4)C3)[nH]n2)n(C)n1` (single isomer, unassigned) [Example 557], the IC50 is 1000 to 100000 nM.
As for `CC(C)NC(=O)O[C@@H]1CC[C@H](c2cc(Nc3cncc(OCCO)n3)n[nH]2)C1` (single isomer, unassigned) [Example 563], the figure is at most 100 nM; as for `CC(C)NC(=O)O[C@H]1CC[C@@H](c2cc(Nc3cncc(OCCO)n3)n[nH]2)C1` (single isomer, unassigned) [Example 564], at most 100 nM.
With `CC1(C)NC(=O)c2ccc(Nc3cc([C@H]4CC[C@@H](Oc5cccnc5)C4)[nH]n3)cc21` (single isomer, unassigned) [Example 565], the IC50 was at most 100 nM.
On to `COCc1cc(C(=O)Nc2cc([C@H]3C[C@H](OC)[C@@H](OC(=O)NC(C)C)C3)[nH]n2)n(C)n1` (single isomer, unassigned) [Example 567], for which the IC50 was 1000 to 100000 nM.
For `COCc1cc(C(=O)Nc2cc([C@@H]3C[C@@H](OC)[C@H](OC(=O)NC(C)C)C3)[nH]n2)n(C)n1` (single isomer, unassigned) [Example 568], the IC50 was 1000 to 100000 nM.
On to `COCc1cc(C(=O)Nc2cc([C@@H]3C[C@H](OC)[C@@H](OC(=O)NC(C)C)C3)[nH]n2)n(C)n1` (single isomer, unassigned) [Example 569], for which the IC50 fell in the range of 1000 to 100000 nM.
For the compound `COCc1cc(C(=O)Nc2cc([C@H]3C[C@@H](OC)[C@H](OC(=O)NC(C)C)C3)[nH]n2)n(C)n1` (single isomer, unassigned) [Example 570], the IC50 lay in the range of 1000 to 100000 nM.
On to `COCc1cc(C(=O)Nc2cc([C@H]3CC[C@@H](c4ccc(C)nn4)C3)[nH]n2)n(C)n1` (single isomer, unassigned) [Example 572], for which the IC50 was 1000 to 100000 nM.
Consider `COCc1cc(C(=O)Nc2cc([C@@H]3CC[C@H](c4ccc(C)nn4)C3)[nH]n2)n(C)n1` (single isomer, unassigned) [Example 573], for which the IC50 was 1000 to 100000 nM.
Regarding `COCc1cc(C(=O)Nc2cc([C@@H]3CC[C@@H](c4ccc(C)nn4)C3)[nH]n2)n(C)n1` (single isomer, unassigned) [Example 574], the IC50 fell in the range of 1000 to 100000 nM.
As to `COCc1cc(C(=O)Nc2cc([C@H]3CC[C@H](c4ccc(C)nn4)C3)[nH]n2)n(C)n1` (single isomer, unassigned) [Example 575], the IC50 lay within 1000 to 100000 nM.
As to `COCc1cc(C(=O)Nc2cc([C@H]3CC[C@@H](c4cnc(C)cn4)C3)[nH]n2)n(C)n1` (single isomer, unassigned) [Example 576], the IC50 was 1000 to 100000 nM.
In the case of `COCc1cc(C(=O)Nc2cc([C@@H]3CC[C@H](c4cnc(C)cn4)C3)[nH]n2)n(C)n1` (single isomer, unassigned) [Example 577], the IC50 was 1000 to 100000 nM.
Regarding `COCc1cc(C(=O)Nc2cc([C@@H]3CC[C@@H](c4cnc(C)cn4)C3)[nH]n2)n(C)n1` (single isomer, unassigned) [Example 578], the IC50 fell in the range of 1000 to 100000 nM.
On to `COCc1cc(C(=O)Nc2cc([C@H]3CC[C@H](c4cnc(C)cn4)C3)[nH]n2)n(C)n1` (single isomer, unassigned) [Example 579], for which the IC50 was in the range of 1000 to 100000 nM.
In the case of `COCc1cc2c(Nc3cc([C@@H]4C[C@H](OC(=O)N5[C@@H](C)CC[C@@H]5C)CO4)[nH]n3)nccn2n1` (single isomer, unassigned) [Example 580], the IC50 is at most 100 nM.
Under `COCc1cc2c(Nc3cc([C@H]4C[C@@H](OC(=O)N5[C@@H](C)CC[C@@H]5C)CO4)[nH]n3)nccn2n1` (single isomer, unassigned) [Example 581] stands at most 100 nM; under `CC(C)c1[nH]ncc1O[C@@H]1CO[C@H](c2cc(Nc3nccn4nccc34)n[nH]2)C1` (single isomer, unassigned) [Example 584], 1000 to 100000 nM; under `CC(C)c1[nH]ncc1O[C@H]1CO[C@@H](c2cc(Nc3nccn4nccc34)n[nH]2)C1` (single isomer, unassigned) [Example 585], 1000 to 100000 nM.
For `C[C@H]1CC[C@H](C)N1C(=O)O[C@@H]1CO[C@H](c2cc(Nc3ccc4c(c3)C(C)(C)NC4=O)n[nH]2)C1` (single isomer, unassigned) [Example 590], the IC50 was at most 100 nM.
Take `C[C@H]1CC[C@H](C)N1C(=O)O[C@H]1CO[C@@H](c2cc(Nc3ccc4c(c3)C(C)(C)NC4=O)n[nH]2)C1` (single isomer, unassigned) [Example 591]: the IC50 was at most 100 nM.
With `COCc1cc(C(=O)Nc2cc([C@H]3CC[C@@H](c4ncc(C)cn4)C3)[nH]n2)n(C)n1` (single isomer, unassigned) [Example 592], the IC50 is 1000 to 100000 nM.
As for `COCc1cc(C(=O)Nc2cc([C@@H]3CC[C@H](c4ncc(C)cn4)C3)[nH]n2)n(C)n1` (single isomer, unassigned) [Example 594], the figure is 1000 to 100000 nM; as for `COCc1cc(C(=O)Nc2cc([C@H]3CC[C@H](c4ncc(C)cn4)C3)[nH]n2)n(C)n1` (single isomer, unassigned) [Example 595], 1000 to 100000 nM; as for `COCc1cc(C(=O)Nc2cc([C@@H]3CC[C@@H](c4ncc(C)cn4)C3)[nH]n2)n(C)n1` (single isomer, unassigned) [Example 596], 1000 to 100000 nM.
In the case of `COCc1cc(C(=O)Nc2cc([C@H]3CC[C@@H](c4ccc(C)cn4)C3)[nH]n2)n(C)n1` (single isomer, unassigned) [Example 597], the IC50 fell in the range of 1000 to 100000 nM.
As to `COCc1cc(C(=O)Nc2cc([C@@H]3CC[C@H](c4ccc(C)cn4)C3)[nH]n2)n(C)n1` (single isomer, unassigned) [Example 598], the IC50 fell in the range of 1000 to 100000 nM.
Turning to `COCc1cc(C(=O)Nc2cc([C@H]3CC[C@H](c4ccc(C)cn4)C3)[nH]n2)n(C)n1` (single isomer, unassigned) [Example 599], the IC50 is 1000 to 100000 nM.
For the compound `COCc1cc(C(=O)Nc2cc([C@@H]3CC[C@@H](c4ccc(C)cn4)C3)[nH]n2)n(C)n1` (single isomer, unassigned) [Example 600], the IC50 was 1000 to 100000 nM.
`COCc1cc(C(=O)Nc2cc([C@H]3CC[C@@H](c4cc(C(C)C)ncn4)C3)[nH]n2)n(C)n1` (single isomer, unassigned) [Example 601]: the IC50 was 1000 to 100000 nM.
In the case of `COCc1cc(C(=O)Nc2cc([C@@H]3CC[C@H](c4cc(C(C)C)ncn4)C3)[nH]n2)n(C)n1` (single isomer, unassigned) [Example 602], the IC50 lay in the range of 1000 to 100000 nM.
Turning to `COCc1cc(C(=O)Nc2cc([C@H]3CC[C@H](c4cc(C(C)C)ncn4)C3)[nH]n2)n(C)n1` (single isomer, unassigned) [Example 603], the IC50 lay within 1000 to 100000 nM.
As to `COCc1cc(C(=O)Nc2cc([C@@H]3CC[C@@H](c4cc(C(C)C)ncn4)C3)[nH]n2)n(C)n1` (single isomer, unassigned) [Example 604], the IC50 was 1000 to 100000 nM.
